Data taken from ChEMBL document CHEMBL5046316, “Structure-Based Optimization of a Fragment-like TLR8 Binding Screening Hit to an In Vivo Efficacious TLR7/8 Antagonist” (ACS Med Chem Lett, 2022).

Columns and labels:
Toll-like receptor 7 [1] = molecular target: T1, Toll-like receptor 7 (Homo sapiens, UniProt Q9NYK1); experiment: Antagonist activity at human TLR7 expressed in human whole blood assessed as inhibition of ssRNA stimulated IFNalpha level preincubated for 30 mins followed by stimulation and measured after 20 hrs by AlphaLISA method; format: tissue-based
T1 sequence (Q9NYK1 whole entry): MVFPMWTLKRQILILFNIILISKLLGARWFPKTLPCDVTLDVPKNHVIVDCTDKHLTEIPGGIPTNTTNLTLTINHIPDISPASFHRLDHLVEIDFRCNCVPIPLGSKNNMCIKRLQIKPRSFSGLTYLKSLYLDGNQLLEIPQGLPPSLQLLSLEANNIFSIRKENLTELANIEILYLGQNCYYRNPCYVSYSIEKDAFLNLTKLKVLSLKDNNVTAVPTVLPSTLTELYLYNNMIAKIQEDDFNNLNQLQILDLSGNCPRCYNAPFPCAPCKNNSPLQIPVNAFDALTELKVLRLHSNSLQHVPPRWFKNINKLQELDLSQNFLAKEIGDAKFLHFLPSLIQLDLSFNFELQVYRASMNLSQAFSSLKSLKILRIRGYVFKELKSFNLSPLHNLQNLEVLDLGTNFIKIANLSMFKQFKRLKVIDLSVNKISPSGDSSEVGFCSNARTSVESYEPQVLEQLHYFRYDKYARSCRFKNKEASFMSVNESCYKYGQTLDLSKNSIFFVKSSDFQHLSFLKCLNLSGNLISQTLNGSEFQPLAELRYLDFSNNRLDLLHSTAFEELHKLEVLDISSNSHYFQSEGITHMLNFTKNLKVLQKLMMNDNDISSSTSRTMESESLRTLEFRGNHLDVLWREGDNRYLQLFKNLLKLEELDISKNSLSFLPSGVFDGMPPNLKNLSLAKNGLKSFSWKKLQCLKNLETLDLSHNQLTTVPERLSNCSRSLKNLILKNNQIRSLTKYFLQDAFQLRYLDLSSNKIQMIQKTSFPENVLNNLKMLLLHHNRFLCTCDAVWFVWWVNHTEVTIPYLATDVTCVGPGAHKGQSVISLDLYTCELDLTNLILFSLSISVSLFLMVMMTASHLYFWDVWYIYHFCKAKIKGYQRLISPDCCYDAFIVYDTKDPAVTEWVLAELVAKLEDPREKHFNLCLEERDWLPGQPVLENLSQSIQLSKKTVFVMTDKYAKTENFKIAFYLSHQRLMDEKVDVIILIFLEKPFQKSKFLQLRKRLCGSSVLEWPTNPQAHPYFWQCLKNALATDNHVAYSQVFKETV

Toll-like receptor 7 [2] = molecular target: T1, Toll-like receptor 7; experiment: Antagonist activity at human TLR7 expressed in human PBMC cells assessed as inhibition of ssRNA stimulated IFNalpha level preincubated for 30 mins followed by stimulation and measured after 20 hrs by AlphaLISA method; format: cell-based
[3] = Dissociation constant, pKa of the compound by UV spectrometric titration method; format: physicochemical
[4] = Volume of distribution at steady state in Balb/c mouse at 10 mg/kg, po or 1 mg/kg, iv administered as cassette dose measured upto 24 hrs by LC/MS/MS analysis; format: ADME, organism-based; conditions: in vivo, read-out: Vdss
[5] = molecular target: Voltage-gated inwardly rectifying potassium channel KCNH2 (Homo sapiens, UniProt Q12809); experiment: Inhibition of human ERG; format: toxicity
Toll-like receptor 9 [6] = molecular target: T2, Toll-like receptor 9 (Homo sapiens, UniProt Q9NR96); experiment: Antagonist activity at human TLR9 expressed in human PBMC cells assessed as inhibition of ODN2216 stimulated IFNalpha level preincubated for 30 mins followed by stimulation and measured after 20 hrs by AlphaLISA method; format: cell-based
T2 sequence (Q9NR96 whole entry): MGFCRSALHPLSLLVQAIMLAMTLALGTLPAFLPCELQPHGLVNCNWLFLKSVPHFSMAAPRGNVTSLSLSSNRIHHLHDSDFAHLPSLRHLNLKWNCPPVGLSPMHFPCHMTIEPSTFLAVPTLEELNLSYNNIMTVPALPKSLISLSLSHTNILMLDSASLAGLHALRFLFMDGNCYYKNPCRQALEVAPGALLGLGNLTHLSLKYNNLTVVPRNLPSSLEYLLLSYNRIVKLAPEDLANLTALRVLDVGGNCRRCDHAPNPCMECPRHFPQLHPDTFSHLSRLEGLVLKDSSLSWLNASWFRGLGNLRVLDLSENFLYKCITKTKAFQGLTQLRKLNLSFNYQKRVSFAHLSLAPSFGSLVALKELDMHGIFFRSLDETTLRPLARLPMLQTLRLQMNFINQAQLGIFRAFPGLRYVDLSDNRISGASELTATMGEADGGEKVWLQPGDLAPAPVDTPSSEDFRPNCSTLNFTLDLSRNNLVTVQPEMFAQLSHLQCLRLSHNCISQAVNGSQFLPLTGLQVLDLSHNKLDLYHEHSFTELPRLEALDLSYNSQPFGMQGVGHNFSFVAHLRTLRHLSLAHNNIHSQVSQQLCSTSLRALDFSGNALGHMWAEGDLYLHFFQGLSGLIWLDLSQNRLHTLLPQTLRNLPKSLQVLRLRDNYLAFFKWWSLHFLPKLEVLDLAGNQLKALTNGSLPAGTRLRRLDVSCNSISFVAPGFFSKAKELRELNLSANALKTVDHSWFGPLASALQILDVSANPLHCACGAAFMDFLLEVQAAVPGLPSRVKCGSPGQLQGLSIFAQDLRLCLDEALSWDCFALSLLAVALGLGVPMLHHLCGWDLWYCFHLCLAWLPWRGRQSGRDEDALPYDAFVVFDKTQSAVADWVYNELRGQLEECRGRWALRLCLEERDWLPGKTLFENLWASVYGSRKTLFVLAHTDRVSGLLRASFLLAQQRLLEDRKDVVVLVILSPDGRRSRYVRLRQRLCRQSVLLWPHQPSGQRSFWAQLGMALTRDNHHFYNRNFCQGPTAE

Toll-like receptor 9 [7] = molecular target: T2, Toll-like receptor 9; experiment: Antagonist activity at human TLR9 expressed in human whole blood assessed as inhibition of ODN2216 stimulated IFNalpha level preincubated for 30 mins followed by stimulation and measured after 20 hrs by AlphaLISA method; format: tissue-based
[8] = Dose normalized AUC in Balb/c mouse at 10 mg/kg, po and 1 mg/kg,iv administered as cassette dose measured upto 24 hrs by LC/MS/MS analysis; format: ADME, organism-based; set-up: dose 10 mg/kg, time <=24; conditions: in vivo

Chain of Voltage-gated inwardly rectifying potassium channel KCNH2 (Q12809 whole entry): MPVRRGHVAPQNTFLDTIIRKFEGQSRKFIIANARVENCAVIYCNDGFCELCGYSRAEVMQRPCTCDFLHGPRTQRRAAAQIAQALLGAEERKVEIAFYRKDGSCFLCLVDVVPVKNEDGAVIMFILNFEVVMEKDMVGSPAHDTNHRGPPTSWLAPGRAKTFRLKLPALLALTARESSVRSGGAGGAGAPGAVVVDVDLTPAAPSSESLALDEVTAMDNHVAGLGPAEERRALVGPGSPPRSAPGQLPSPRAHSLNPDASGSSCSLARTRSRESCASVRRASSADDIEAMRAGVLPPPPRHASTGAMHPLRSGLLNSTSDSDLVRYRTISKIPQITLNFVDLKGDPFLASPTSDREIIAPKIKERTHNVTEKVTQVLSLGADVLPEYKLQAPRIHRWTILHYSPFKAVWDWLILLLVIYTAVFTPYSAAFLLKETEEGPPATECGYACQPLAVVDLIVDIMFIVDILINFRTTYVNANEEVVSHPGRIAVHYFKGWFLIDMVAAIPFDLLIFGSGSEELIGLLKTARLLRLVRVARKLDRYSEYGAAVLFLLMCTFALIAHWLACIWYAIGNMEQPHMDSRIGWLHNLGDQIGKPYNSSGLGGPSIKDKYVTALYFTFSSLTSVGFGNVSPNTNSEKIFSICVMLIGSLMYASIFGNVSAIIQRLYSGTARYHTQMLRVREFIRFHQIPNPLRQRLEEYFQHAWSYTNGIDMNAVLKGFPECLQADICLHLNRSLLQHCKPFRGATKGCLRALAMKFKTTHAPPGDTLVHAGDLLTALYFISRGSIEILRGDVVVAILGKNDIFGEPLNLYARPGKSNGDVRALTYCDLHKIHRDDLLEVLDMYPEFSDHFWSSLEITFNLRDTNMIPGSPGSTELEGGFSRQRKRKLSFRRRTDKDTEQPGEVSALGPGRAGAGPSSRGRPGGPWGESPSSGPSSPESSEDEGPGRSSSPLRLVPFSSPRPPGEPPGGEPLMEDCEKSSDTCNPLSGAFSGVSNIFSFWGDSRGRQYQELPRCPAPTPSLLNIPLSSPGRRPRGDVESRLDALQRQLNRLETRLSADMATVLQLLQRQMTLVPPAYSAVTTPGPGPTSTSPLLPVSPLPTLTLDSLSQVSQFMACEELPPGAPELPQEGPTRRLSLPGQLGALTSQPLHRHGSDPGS

SMILES: Cc1cc(-c2cc3[nH]nc(N[C@@H]4CCNC[C@H]4F)c3cc2C2CC2)cc(C)n1
- IC50 (Toll-like receptor 7 [1]): 4.9 nM
- IC50 (Toll-like receptor 7 [2]): 7 nM
- pKa [3]: 6.7
- Vd [4]: 8.4 L/kg
- IC50 [5]: > 30 µM
- IC50 (Toll-like receptor 9 [6]): > 570 nM
- IC50 (Toll-like receptor 9 [7]): 390 nM
- AUC [8]: 304 nM·h/mg/kg
